Results as given in ChEMBL document CHEMBL1153800, “Carbonic anhydrase inhibitors; fluorinated phenyl sulfamates show strong inhibitory activity and selectivity for the inhibition of the tumor-associated isozymes IX and XII over the cytosolic ones I and II” (Bioorg Med Chem Lett, 2009).

Columns and labels:
[1] = biological target: Carbonic anhydrase 1 (Homo sapiens) (UniProt P00915)
Description: Inhibition of human CA1 by stopped flow CO2 hydration assay

[2] = biological target: Carbonic anhydrase 2 (Homo sapiens) (UniProt P00918)
Description: Inhibition of human CA2 by stopped flow CO2 hydration assay

[3] = biological target: Carbonic anhydrase 12 (Homo sapiens) (UniProt O43570)
Description: Inhibition of tumor associated human recombinant CA12 catalytic domain by stopped flow CO2 hydration assay

[4] = biological target: Carbonic anhydrase 9 (Homo sapiens) (UniProt Q16790)
Description: Inhibition of tumor associated human recombinant CA9 catalytic domain by stopped flow CO2 hydration assay

Homo sapiens = species: Homo sapiens; assay: Selectivity ratio of Ki for human recombinant CA9 catalytic domain to Ki for human CA2

Carbonic anhydrase 1 (Homo sapiens), sequence (P00915 2-261 limits assumed): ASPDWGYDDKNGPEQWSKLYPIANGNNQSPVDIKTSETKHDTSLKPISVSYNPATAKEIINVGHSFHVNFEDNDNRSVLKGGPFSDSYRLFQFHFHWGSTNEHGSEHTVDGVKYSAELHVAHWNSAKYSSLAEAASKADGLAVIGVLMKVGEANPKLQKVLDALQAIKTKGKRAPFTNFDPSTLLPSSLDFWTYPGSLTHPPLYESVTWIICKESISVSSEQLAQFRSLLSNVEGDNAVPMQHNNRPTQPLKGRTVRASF
Carbonic anhydrase 12 (Homo sapiens), sequence (O43570 whole entry): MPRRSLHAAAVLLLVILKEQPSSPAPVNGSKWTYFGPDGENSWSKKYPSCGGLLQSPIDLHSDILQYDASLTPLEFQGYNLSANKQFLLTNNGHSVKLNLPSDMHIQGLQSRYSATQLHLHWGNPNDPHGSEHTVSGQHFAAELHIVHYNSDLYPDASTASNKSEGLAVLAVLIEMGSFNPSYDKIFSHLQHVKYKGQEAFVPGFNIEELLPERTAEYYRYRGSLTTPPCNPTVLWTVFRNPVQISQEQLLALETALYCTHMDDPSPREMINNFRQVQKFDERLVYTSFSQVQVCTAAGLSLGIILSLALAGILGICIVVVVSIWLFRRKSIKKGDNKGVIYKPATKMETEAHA

Ki [1]	Ki [2]	Ki [3]	Ki [4]	Ratio (Homo sapiens)	Compound
0.075 µM	0.074 µM	3.9	0.0065 µM	11.4	NS(=O)(=O)Oc1ccc(F)cc1
0.0021 µM		56	0.063 µM		NS(=O)(=O)Oc1ccccc1
